From article PMC2682573, “A Novel Two Mode-Acting Inhibitor of ABCG2-Mediated Multidrug Transport and Resistance in Cancer Chemotherapy” (PLoS ONE, 2009)

Experiments:
ABCG2 [1] = molecular target: T1, ABCG2 (Homo sapiens, UniProt Q9UNQ0); assay: mitoxantrone accumulation ([…]) and 5D3 conformational staining ([…]) in HEK293/ABCG2 cells; assay type: cell-based
T1 sequence (Q9UNQ0 1-655): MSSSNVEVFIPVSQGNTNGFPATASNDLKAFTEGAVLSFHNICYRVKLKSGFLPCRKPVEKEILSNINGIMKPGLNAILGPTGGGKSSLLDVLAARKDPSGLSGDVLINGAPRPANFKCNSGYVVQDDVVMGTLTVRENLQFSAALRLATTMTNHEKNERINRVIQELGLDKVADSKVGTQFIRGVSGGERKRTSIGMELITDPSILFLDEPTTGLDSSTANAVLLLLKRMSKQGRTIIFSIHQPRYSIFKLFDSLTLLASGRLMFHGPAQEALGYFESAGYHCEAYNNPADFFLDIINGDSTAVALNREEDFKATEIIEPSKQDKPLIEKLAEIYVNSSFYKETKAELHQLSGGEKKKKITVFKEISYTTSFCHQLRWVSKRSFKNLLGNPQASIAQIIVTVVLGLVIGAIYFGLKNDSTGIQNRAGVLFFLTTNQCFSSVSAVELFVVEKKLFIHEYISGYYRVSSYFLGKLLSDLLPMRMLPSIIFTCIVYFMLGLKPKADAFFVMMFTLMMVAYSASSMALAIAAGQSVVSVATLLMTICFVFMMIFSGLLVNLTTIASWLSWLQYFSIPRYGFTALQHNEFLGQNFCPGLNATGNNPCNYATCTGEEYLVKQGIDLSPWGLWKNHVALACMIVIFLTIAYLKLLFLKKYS

ABCG2 [2] = molecular target: T1, ABCG2; assay: reference inhibitor; mitoxantrone accumulation, 5D3 conformational staining and sensitization IC50 in HEK293/ABCG2 cells; assay type: cell-based
ABCG2 [3] = molecular target: T1, ABCG2; settings: hek293/abcg2 inside-out membrane vesicles

CC(C)(C)NC(=O)CSc1nc2ccc(Nc3nc(N4CCOCC4)nc(N4CCOCC4)n3)cc2s1 [C6]
mitoxantrone accumulation (3 μM) and 5D3 conformational staining (10 μM) in HEK2 (ABCG2 [1]): All three analogues had similar activity as PZ-39 in enhancing mitoxantrone accumulation

CC(=O)CSc1nc2ccc(Nc3nc(N4CCOCC4)nc(N4CCOCC4)n3)cc2s1 [C8]
mitoxantrone accumulation (3 μM) and 5D3 conformational staining (10 μM) in HEK2 (ABCG2 [1]): All three analogues had similar activity as PZ-39 in enhancing mitoxantrone accumulation

O=C(CSc1nc2ccc(Nc3nc(Nc4ccccc4)nc(Nc4ccccc4)n3)cc2s1)N1CCCC1 [E2]
mitoxantrone accumulation (3 μM) and 5D3 conformational staining (10 μM) in HEK2 (ABCG2 [1]): All three analogues had similar activity as PZ-39 in enhancing mitoxantrone accumulation

COc1ccc2c3c([nH]c2c1)[C@H](C=C(C)C)N1C(=O)[C@@H]2CCCN2C(=O)[C@@H]1C3 [FTC, Fumitremorgin C]
IC50 (μM) / Inhibitor+MX ^a (ABCG2 [2]): 0.387 ± 0.054 µM

O=C1c2c(O)ccc(O)c2C(=O)c2c(NCCNCCO)ccc(NCCNCCO)c21 [mitoxantrone]
Km (ABCG2 [3]): 2.3 µM
